# Results from patent US8198285B2, “Pyrazine derivatives” (Astrazeneca AB, priority 2010, dated 2012).
# Counter-ions that a name gives are not always drawn.
# System: Female Sprague Dawley rats
# Assay: Increased bone formation in rats: femur histopathology
# Type: in vivo
# Conditions: rat, oral
# Method: For in vitro osteogenesis, human adipose-derived stem cells (hADSC) (Invitrogen, UK; catalogue number R7788-115) were seeded into 12-well plates at a density of 5000 cells/cm^2 and were cultured in a basal media of phenol red-free Dulbecco's Modified Eagles Medium (DMEM; Sigma-Aldrich, UK; catalogue number D1145) supplemented with 5% fetal bovine serum (FBS, Gibco, UK; catalogue number 10270) and 2 mM GlutaMax® (Gibco; catalogue number 35050). […] In osteogenic positive control wells, basal media was replaced with a differentiation media; phenol red-free DMEM supplemented with 5% FBS, 2 mM GlutaMax®, 50 μg/ml L-ascorbic acid (Sigma-Aldrich; Catalogue no. A8960), 5 mM β-glycerophosphate (Calbiochem, UK; catalogue number 35675), and 10 nM dexamethasone (Sigma-Aldrich; catalogue number D4902). The cultures were incubated at 37° C. in 5% CO2 with media and compound was replaced every 3-4 days over a time-course of 24 days. The formation of mineralized bone nodules was assessed during the time-course using Alizarin Red S staining. At numerous times throughout the time-course, cells were fixed with 4% paraformaldehyde (Sigma-Aldrich; catalogue number P6148) for 20 min, followed by three washes with phosphate buffered saline (PBS), without calcium chloride and magnesium chloride, (Sigma-Aldrich; catalogue number D8537), before being stained with 40 mM Alizarin Red S (Sigma-Aldrich; catalogue number A5533) (pH4.2) for 20 min at room temperature. Plates were placed on a rocking platform (50 rpm) during staining After staining, cells were washed three times with PBS, and three times with water. Cells were imaged using a Leica M165FC stereomicroscope and associated Leica Application Suite imaging software (Leica Microsystems, UK). The amount of mineralisation was quantified through the extraction of the Alizarin Red S stain from bone nodules using a cetylpyridinium chloride extraction method, previously described (Gregory et al., Analytical Biochemistry, 2004, 329: 77-84; Hwang et al., Stem Cells and Development 17: 963-970, 2008). Briefly, Alizarin Red S stain was extracted from bone nodules through the addition of 1 ml, to each well, of a cetylpyridium chloride buffer consisting of 10% cetylpyridium chloride (Sigma-Aldrich; catalogue number C0732) in 10 mM Na3PO4 (Sigma-Aldrich; catalogue number 342483) (pH7.0) and incubation for 1 h at 37° C. Following incubation, 200 μl aliquots were transferred to 96-well format and the absorbance at 550 nm was determined using a microplate spectrophotometer (SpectraMax Plus, Molecular Devices, USA). Data were expressed as mean absorbance at 550 nm±Standard error of mean (SEM). Differences between groups were examined for statistical significance using one-way analysis of variance (ANOVA) followed by Tukey's multiple comparison post hoc test. P<0.05 was considered significant. […] Experiments were performed in triplicate. […] Data are shown as mean absorbance at 550 nm and analysed using one-way ANOVA followed by Tukey's multiple comparison post hoc test: n=9; ***, P<0.001. […] Female Sprague Dawley rats (Charles River CRL:CD rats, Deal, Margate, UK) aged between 12 and 16 weeks (230-340 g) were dosed with either compound or vehicle with a 5 mL/kg volume administered by oral gavage using straight steel (75 mm, 16 gauge) oral gavage feeding needles (Vet-Tech Solutions Ltd, Congleton, UK) between 7 and 10 am each day. Compound or vehicle was dosed at various doses (including 2.5, 5, 15 or 50 mg/kg/day freebase doses equivalent to 3, 6, 18 and 59 mg/kg of tri-hydrochloride salt) once a day for seven to fourteen days. In some studies a serum sample was taken prior to treatment to measure baseline serum bone biomarkers following overnight fasting. Blood was sampled from the tail vein and serum prepared by adding the blood to serum gel blood collection tubes (Microvette 500 Z-gel, catalogue number 20.1344, Sarstedt, Leicester, UK) and centrifuging the tubes for at 13000 rpm for 5 min at 4° C. […]
smiles,measurement,setting,value
"COCCCNCCCc1ccc(-c2cnc(N)c(C(=O)Nc3cccnc3)n2)cc1 [Example 1, 3-Amino-6-(4-{3-[(3-methoxypropyl)amino]propyl}phenyl)-N-pyridin-3-ylpyrazine-2-carboxamide tri-hydrochloride]","Histopathology, morphology in the femur","5 mg/kg, 7 or 14 days, vs vehicle",no differences in morphology in the femur
same,Focal bone masses in the sub-chondral region,"15 mg/kg, 14 days",2 out of 10
same,"Histopathology, bone formation in femur","15 mg/kg, 14 days",evidence of bone formation in both the sub-chondral region and cortical region
same,"Histopathology, bone marrow","50 mg/kg, 7 days",histological evidence of bone marrow cell mobilization and differentiation
same,"Histopathology, cancellous bone compartment","50 mg/kg, 7 days",evidence of increased bone within the cancellous bone compartment
same,"Histopathology, bone changes in femur","50 mg/kg, 14 days",broader range of bone changes suggestive of bone formation
same,"Histopathology, osteoblast hypertrophy","15 and 50 mg/kg, 7 days",evidence of osteoblast hypertrophy
same,"Histopathology, osteoid and bone in femur","15 and 50 mg/kg, 7 days",dose related changes of increased osteoid and bone in both the sub-chondral region and in the cortical bone in the shaft
